Reference: ChEMBL document CHEMBL1150792, “Enterobacteriaceae bloodstream infections: presence of integrons, risk factors, and outcome” (2007)

Legend:
Enterobacteriaceae [1] = assay: Antimicrobial activity against integron carrying Enterobacteriaceae assessed as percent resistant isolates; type: functional
Enterobacteriaceae [2] = assay: Antimicrobial activity against non-integron carrying Enterobacteriaceae assessed as percent resistant isolates; type: functional

Compound | Activity (Enterobacteriaceae [1]) | Activity (Enterobacteriaceae [2])
CO[C@@]1(NC(=O)Cc2cccs2)C(=O)N2C(C(=O)O)=C(COC(N)=O)CS[C@@H]21 (single isomer, unassigned) [CEFOXITIN] | 40% | 16.6%
NCC[C@H](O)C(=O)N[C@@H]1C[C@H](N)[C@@H](O[C@H]2O[C@H](CN)[C@@H](O)[C@H](O)[C@H]2O)[C@H](O)[C@H]1O[C@H]1O[C@H](CO)[C@@H](O)[C@H](N)[C@H]1O [AMIKACIN] | 29.7% | 4.2%
CC1(C)S[C@@H]2[C@H](NC(=O)[C@H](N)c3ccccc3)C(=O)N2[C@H]1C(=O)O [AMPICILLIN] | 96.3% | 60%
C[C@H]1[C@H](NC(=O)/C(=N\OC(C)(C)C(=O)O)c2csc(N)n2)C(=O)N1S(=O)(=O)O [AZTREONAM] | 26.9% | 9.4%
CO/N=C(\C(=O)N[C@@H]1C(=O)N2C(C(=O)[O-])=C(C[N+]3(C)CCCC3)CS[C@H]12)c1csc(N)n1 [CEFEPIME] | 29.5% | 6.2%
CO/N=C(\C(=O)N[C@@H]1C(=O)N2C(C(=O)O)=C(COC(C)=O)CS[C@H]12)c1csc(N)n1 [CEFOTAXIME] | 41.3% | 6.9%
CC(C)(O/N=C(\C(=O)N[C@@H]1C(=O)N2C(C(=O)[O-])=C(C[n+]3ccccc3)CS[C@H]12)c1csc(N)n1)C(=O)O [CEFTAZIDIME] | 36.3% | 4.9%
CO/N=C(\C(=O)N[C@@H]1C(=O)N2C(C(=O)O)=C(COC(N)=O)CS[C@H]12)c1ccco1 [CEFUROXIME] | 46.9% | 21.9%
O=C(O)c1cn(C2CC2)c2cc(N3CCNCC3)c(F)cc2c1=O [CIPROFLOXACIN] | 49.4% | 6.9%
COc1cc(Cc2cnc(N)nc2N)cc(OC)c1OC.Cc1cc(NS(=O)(=O)c2ccc(N)cc2)no1 [CO-TRIMOXAZOLE] | 87.7% | 14.5%
C[C@@H](O)[C@H]1C(=O)N2C(C(=O)O)=C(SCCNC=N)C[C@H]12 [IMIPENEM ANHYDROUS] | 7.6% | 1.2%
C[C@@H](O)[C@H]1C(=O)N2C(C(=O)O)=C(S[C@@H]3CN[C@H](C(=O)N(C)C)C3)[C@H](C)[C@H]12 [MEROPENEM] | 6% | 2%
CCN1CCN(C(=O)N[C@@H](C(=O)N[C@@H]2C(=O)N3[C@@H]2SC(C)(C)[C@@H]3C(=O)O)c2ccccc2)C(=O)C1=O [PIPERACILLIN] | 90.2% | 32.1%
NC[C@H]1O[C@H](O[C@H]2[C@H](O)[C@@H](O[C@H]3O[C@H](CO)[C@@H](O)[C@H](N)[C@H]3O)[C@H](N)C[C@@H]2N)[C@H](N)C[C@@H]1O [TOBRAMYCIN] | 41.8% | 8.5%
COLISTIMETHATE SODIUM | 12.5% | 12.5%
